Experimental data from patent publication US20240287093A1, “HIGH ACTIVITY STING PROTEIN AGONIST” (ADLAI NORTYE BIOPHARMA CO., LTD., priority 2018, published 2024).

Columns and labels:
Assay type in all cases: cell-based
STING variants (WT) [1] = molecular target: T1, STING variants (WT) (Homo sapiens, UniProt Q86WV6); experiment: SEAP reporter assay in HEK-Blue ISG KO-STING cells transfected with STING WT variant (Method 2, 1 ng vector); settings: compound concentration 2.5 (mM as printed); 24 h; SEAP signal ratio to 0.5% DMSO
T1 construct: host or cells: HEK-Blue ISG KO-STING cells (Invivogen, hkb-kostg)
Source text: (§1) Example II: STING Variants (WT & HAQ) Activation by Compounds in HEK-Blue™ ISG KO-STING Cells (Method 2)
(§2) Activation of STING can be determined using a SEAP reporter assay in HEK-Blue™ ISG KO-STING cells (Invivogen, cat #hkb-kostg) transfected with plasmids expressing STING variants (WT & HAQ) (referred to WO2017/175147A1). STING variants (WT & HAQ) vector were constructed based on STING-232H vector (Origene, RC208418). GFP vector (VT2069) was bought from Youbio. The detailed protocol as follows: HEK-Blue™ ISG KO-STING cells were harvest and seeding into 96 well plate and the final cell number was 0.8×10^5 cells/well. Transfections were prepared using Lipofectamine 2000 (Invitrogen, Cat #11668-027) following the manufacturer's instructions (Lipo2000:DNA=1:10), 20 ul of transfection suspension containing 1 ng (WT variant) or 0.0625 ng (HAQ variant) STING vector was added to cell culture plate and incubated at 37° C., 5% CO2 for 24 h. After 24 hours incubation, compounds were added at proper concentration, the final DMSO concentration was 0.5%. After 24h incubation, the supernatant was collected to detect SEAP signal using Great EscAPe SEAP chemiluminescence KIT (Clontech, cat #631738) and cells were collected to detect cell viability using CellTiter-Glo Luminescent Cell Viability Assay(Promega, cat #G7573) following the manufacturer's instructions. The data were described by the ratio of the stimulating signal of compounds to 0.5% DMSO.

STING variants (HAQ) [2] = molecular target: T2, STING variants (HAQ) (Homo sapiens, UniProt Q86WV6, G230A/R293Q/R71H); experiment: SEAP reporter assay in HEK-Blue ISG KO-STING cells transfected with STING HAQ variant (Method 2, 0.0625 ng vector); settings: compound concentration 5 (mM as printed); 24 h; SEAP signal ratio to 0.5% DMSO
T2 construct: host or cells: HEK-Blue ISG KO-STING cells (Invivogen, hkb-kostg)
T2 sequence (Q86WV6 whole entry R71H/G230A/R293Q): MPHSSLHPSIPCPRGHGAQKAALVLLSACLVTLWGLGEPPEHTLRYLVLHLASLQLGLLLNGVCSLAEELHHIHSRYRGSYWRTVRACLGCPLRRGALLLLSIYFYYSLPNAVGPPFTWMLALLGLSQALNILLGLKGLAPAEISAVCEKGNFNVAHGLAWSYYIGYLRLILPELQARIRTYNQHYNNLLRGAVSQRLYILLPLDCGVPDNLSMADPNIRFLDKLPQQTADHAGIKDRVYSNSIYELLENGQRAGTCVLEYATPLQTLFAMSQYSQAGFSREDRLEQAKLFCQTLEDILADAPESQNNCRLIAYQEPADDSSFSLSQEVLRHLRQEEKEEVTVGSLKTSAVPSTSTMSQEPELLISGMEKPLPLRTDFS
Source text: as §1, §2

STING = molecular target: T3, STING (Homo sapiens, UniProt Q86WV6, G230A/H232R/R293Q/R71H); experiment: IFNβ release from THP1 by STING activation (hIFNβ ELISA); settings: THP1 cells, 24 h, IFN-β in supernatant; inactive = IFNβ not detected at the maximum concentration of compounds
T3 construct: THP1 was purchased from National Collection of Authenticated Cell Cultures (Cat #TCHu 57); host or cells: THP1
T3 sequence (Q86WV6 whole entry R71H/G230A/H232R/R293Q): as the sequence (Q86WV6 whole entry R71H/G230A/R293Q) above, with H232R counted along it
Procedure: Example III: Compound Stimulate THP1 to Release IFNβ by STING Activation
In this assay, activation of STING by compounds was evaluated by detecting their ability to stimulate the secretion of IFN-β (interferon-beta) from THP1. THP1 was purchased from National Collection of Authenticated Cell Cultures (Cat #TCHu 57). The top dose of compounds was setted according to their solubility. First, Compounds were 3 times diluted with medium, 8-dose points in total. The final DMSO concentration was 0.2%. THP1 during the logarithmic phase was resuspended to 2×10^6 cells/ml in assay medium. The THP1-cell suspension was dispensed into a 96-well U bottom plate containing 50 ul of compound diluted in medium. After 24 h incubation at 37° C., 5% CO2, the supernatant was collected. The concentration of IFN-β in the supernatant was measured using a human IFNβ ELISA KIT (R&D, DY814-05). The data was fitted with GraphPad Prism or XLfit to calculate EC50 values.

STING variants (WT) [3] = molecular target: T1, STING variants (WT); experiment: SEAP reporter assay in HEK-Blue ISG KO-STING cells transfected with STING WT variant (Method 1); settings: 24 h
Source text: (§3) Example I: STING Variants (WT & HAQ) Activation by Compounds in HEK-Blue™ ISG KO-STING Cells (Method 1)
as §2, with “well plate,” for “well plate and”, “ng” for “ng (WT variant) or 0.0625 ng (HAQ variant)”, “concentration, and” for “concentration,”, “After 24 h” for “After 24h”, “Viability Assay (Promega,” for “Viability Assay(Promega,”

STING variants (HAQ) [4] = molecular target: T2, STING variants (HAQ); experiment: SEAP reporter assay in HEK-Blue ISG KO-STING cells transfected with STING HAQ variant (Method 1); settings: 24 h
Source text: as §3
as §2, with “well plate,” for “well plate and”, “ng” for “ng (WT variant) or 0.0625 ng (HAQ variant)”, “concentration, and” for “concentration,”, “After 24 h” for “After 24h”, “Viability Assay (Promega,” for “Viability Assay(Promega,”

[5] = compound concentration 75.95 μM

Fold change related to DMSO control, WT (STING variants (WT) [1]) | Fold change related to DMSO control, HAQ (STING variants (HAQ) [2]) | EC50 (STING) | hIFNβ ELISA (EC50, μM) (STING) | Compound | also measured
2.48 fold | 15.38 fold | 19.8 µM | – | CCn1nc(C)c(F)c1C(=O)Nc1nc2cc(C(N)=O)cc3c2n1CC(C)(C)CO3 [Example 44, 1-(1-Ethyl-4-fluoro-3-methyl-1H-pyrazole-5-carboxamido)-8,8-dimethyl-8,9-dihydro-7H-6-oxa-2,9a-diazabenzo[cd]azulene-4-carboxamide] | –
1.53 fold | 5.84 fold | > 12.8 µM | – | CCn1nc(C)c(F)c1C(=O)Nc1nc2cc(C(N)=O)cc3c2n1CC1(CC1)CO3 [Example 64, 1-(1-ethyl-4-fluoro-3-methyl-1H-pyrazole-5-carboxamido)-7,9-dihydrospiro[6-oxa-2,9a-diazabenzo[cd]azulene-8,1′-cyclopropane]-4-carboxamide] | –
0.82 fold | 0.82 fold | – | inactive | CCn1nc(C)cc1C(=O)Nc1nc2cc(C(N)=O)cc3c2n1C[C@@H](CO)O3 [Example 52, (S)-2-(1-ethyl-3-methyl-1H-pyrazole-5-carboxamido)-4-(hydroxymethyl)-3,4-dihydro-5-oxa-1,2a-diazaacenaphthylene-7-carboxamide] | –
9.81 fold | 67.23 fold | 4.7 µM | – | CCn1nc(C)cc1C(=O)Nc1nc2cc(C(N)=O)cc3c2n1CC(C)(C)CN3C [Example 68, 1-(1-Ethyl-3-methyl-1H-pyrazole-5-carboxamido)-6,8,8-trimethyl-6,7,8,9-tetrahydro-2,6,9a-triazabenzo[cd]azulene-4-carboxamide] | –
2.29 fold | 7.79 fold | > 16.7 µM | – | CCn1nc(C)c(F)c1C(=O)Nc1nc2cc(C(N)=O)cc3c2n1[C@@H](C(C)C)CO3 [Example 54, (S)-2-(1-Ethyl-4-fluoro-3-methyl-1H-pyrazole-5-carboxamido)-3-isopropyl-3,4-dihydro-5-oxa-1,2a-diazaacenaphthylene-7-carboxamide] | –
6.91 fold | 27.64 fold | > 5.2 µM | – | CC[C@H]1COc2cc(C(N)=O)cc3nc(NC(=O)c4c(F)c(C)nn4CC)n1c23 [Example 47, (S)-3-Ethyl-2-(1-ethyl-4-fluoro-3-methyl-1H-pyrazole-5-carboxamido)-3,4-dihydro-5-oxa-1,2a-diazaacenaphthylene-7-carboxamide] | –
1.90 fold | 8.67 fold | > 16.7 µM | – | CCn1nc(C)cc1C(=O)Nc1nc2cc(C(N)=O)cc3c2n1CC1(CC1)CO3 [Example 61, 1-(1-ethyl-3-methyl-1H-pyrazole-5-carboxamido)-7H,9H-6-oxa-2,9a-diazaspiro[benzo[cd]azulene-8,1′-cyclopropan]-1,2a,3,5-tetraene-4-carboxamide] | –
7.69 fold | 74.83 fold | 7.6 µM | – | CCN1CC(C)(C)Cn2c(NC(=O)c3cc(C)nn3CC)nc3cc(C(N)=O)cc1c32 [Example 69, 6-Ethyl-1-(1-ethyl-3-methyl-1H-pyrazole-5-carboxamido)-8,8-dimethyl-6,7,8,9-tetrahydro-2,6,9a-triazabenzo[cd]azulene-4-carboxamide] | –
1.18 fold | 1.59 fold | – | inactive | CCn1nc(C)c(Cl)c1C(=O)Nc1nc2cc(C(N)=O)cc3c2n1CC(C)(C)CO3 [Example 45, 1-(4-Chloro-1-ethyl-3-methyl-1H-pyrazole-5-carboxamido)-8,8-dimethyl-8,9-dihydro-7H-6-oxa-2,9a-diazabenzo[cd]azulene-4-carboxamide] | –
7.90 fold | 49.72 fold | 14.9 µM | – | CCn1nc(C)cc1C(=O)Nc1nc2cc(C(N)=O)cc3c2n1CC(C)(C)CN3 [Example 67, 1-(1-Ethyl-3-methyl-1H-pyrazole-5-carboxamido)-8,8-dimethyl-6,7,8,9-tetrahydro-2,6,9a-tri azabenzo[cd]azulene-4-carboxamide] | –
1.53 fold | 2.42 fold | > 22.7 µM | – | CCn1nc(C)cc1C(=O)Nc1nc2cc(C(N)=O)cc3c2n1CC(F)(F)CO3 [Example 53, 1-(1-Ethyl-3-methyl-1H-pyrazole-5-carboxamido)-8,8-difluoro-8,9-dihydro-7H-6-oxa-2,9a-diazabenzo[cd]azulene-4-carboxamide] | –
– | – | – | inactive | CCn1nc(C)cc1C(=O)Nc1nc2cc(C(N)=O)cc3c2n1[C@@H](CCCNC(=O)OCc1ccccc1)CN3C [Example 43, Benzyl (S)-(3-(8-carbamoyl-2-(1-ethyl-3-methyl-1H-pyrazole-5-carbozamido)-6-methyl-5,6-dihydro-4H-imidazo[1,5,4-de]quinoxalin-4-yl)propyl)carbamate] | Fold change related to DMSO control, WT (STING variants (WT) [3]; compound concentration 2.5 μM): 2.02 fold; Fold change related to DMSO control, HAQ (STING variants (HAQ) [4]; compound concentration 5 μM): 23.88 fold
– | – | – | inactive | CCn1nc(C)cc1C(=O)Nc1nc2cc(C(N)=O)cc3c2n1[C@@H](CCNC(=O)/C=C/c1ccccc1)CO3 [Example 15, (S)-3-(2-Cinnamamidoethyl)-2-(1-ethyl-3-methyl-1H-pyrazole-5-carboxamido)-3,4-dihydro-5-oxa-1,2a-diazaacenaphthylene-7-carboxamide] | Fold change related to DMSO control, WT (STING variants (WT) [3]; [5]): 3.68 fold; Fold change related to DMSO control, HAQ (STING variants (HAQ) [4]; [5]): 20.00 fold
– | – | – | inactive | CCn1nc(C)cc1C(=O)Nc1nc2cc(C(N)=O)cc3c2n1[C@H](CCCNC(=O)OCc1ccccc1)CO3 [Example 2, Benzyl (R)-(3-(7-carbamoyl-2-(1-ethyl-3-methyl-1H-pyrazole-5-carboxamido)-3,4-dihydro-5-oxa-1,2a-diazaacenaphthylen-3-yl)propyl)carbamate] | Fold change related to DMSO control, WT (STING variants (WT) [3]; compound concentration 77.9 μM): 2.25 fold; Fold change related to DMSO control, HAQ (STING variants (HAQ) [4]; compound concentration 77.9 μM): 6.46 fold
– | – | – | inactive | CCn1nc(C)cc1C(=O)Nc1nc2cc(C(N)=O)cc3c2n1C[C@@H](C)O3 [Example 16, (R)-2-(1-Ethyl-3-methyl-1H-pyrazole-5-carboxamido)-4-methyl-3,4-dihydro-5-oxa-1,2a-diazaacenaphthylene-7-carboxamide] | Fold change related to DMSO control, WT (STING variants (WT) [3]; compound concentration 42.8 μM): 3.00 fold; Fold change related to DMSO control, HAQ (STING variants (HAQ) [4]; compound concentration 42.8 μM): 15.06 fold
